The values below are quoted from earlier work in patent US20140357595A1, “METHODS OF PREVENTING AND TREATING RECURRENCE OF A HEPATITIS C VIRUS INFECTION IN A SUBJECT AFTER THE SUBJECT HAS RECEIVED A LIVER TRANSPLANT” (priority 2013, published 2014).

Data set [1] concerns the target T1, HCV NS5B RNA dependent RNA polymerase (Hepatitis C virus genotype 1a, UniProt P27958).
T1 construct: the HCV NS5B RNA dependent RNA polymerase

The conditions of data set [2]: clinical trials.

T1 sequence (P27958 2421-3011): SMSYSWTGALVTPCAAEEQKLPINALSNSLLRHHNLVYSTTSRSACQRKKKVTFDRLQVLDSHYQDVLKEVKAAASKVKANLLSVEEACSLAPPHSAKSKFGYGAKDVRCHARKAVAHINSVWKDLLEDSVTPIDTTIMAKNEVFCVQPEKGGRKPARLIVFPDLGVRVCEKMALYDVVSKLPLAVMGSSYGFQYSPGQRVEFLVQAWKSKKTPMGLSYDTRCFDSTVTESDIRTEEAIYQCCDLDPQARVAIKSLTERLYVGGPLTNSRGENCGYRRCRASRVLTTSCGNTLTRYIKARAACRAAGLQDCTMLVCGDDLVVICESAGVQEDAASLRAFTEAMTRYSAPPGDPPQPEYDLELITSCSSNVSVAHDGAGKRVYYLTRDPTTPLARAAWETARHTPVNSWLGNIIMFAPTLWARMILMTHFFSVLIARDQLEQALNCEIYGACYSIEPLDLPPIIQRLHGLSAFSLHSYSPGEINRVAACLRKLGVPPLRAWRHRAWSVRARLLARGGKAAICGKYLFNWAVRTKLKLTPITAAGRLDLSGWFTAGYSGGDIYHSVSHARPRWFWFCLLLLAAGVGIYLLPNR

As for `C[C@@]1(F)[C@H](O)[C@@H](COP(=O)(O)OP(=O)(O)OP(=O)(O)O)O[C@H]1n1ccc(=O)[nH]c1=O` [5′-triphosphate metabolite of Compound 1], the “inhibition of HCV replication mediated by the HCV NS5B RNA dependent RNA polymerase” value in data set [1] was “potent and selective inhibitor”.

Regarding `CC(C)OC(=O)[C@H](C)N[P@](=O)(OC[C@H]1O[C@@H](n2ccc(=O)[nH]c2=O)[C@](C)(F)[C@@H]1O)Oc1ccccc1` [Compound 1, (S)-isopropyl 2-(((S)-(((2R,3R,4R,5R)-5-(2,4-dioxo-3,4-dihydropyrimidin-1(2H)-yl)-4-fluoro-3-hydroxy-4-methyltetrahydrofuran-2-yl)methoxy)(phenoxy)phosphoryl)amino)propanoate], the tolerability entry in data set [2] is “well-tolerated”.
